“And” between values parts separate entries of the source, which are not always exact repeats. Identical values can stand only once. “Also recorded” adds a separate entry of the source. Like-named read-outs stand apart in the source and are kept apart here.
Key:
S. sobrinus 6715 = test: In vitro static biofilm inhibition assay (crystal violet); type: cell-based, Streptococcus sobrinus; conditions: 125 μM; for inhibition of biofilm formation of S. sobrinus 6715: BHI 1% sucrose, 20 h
S. mutans UA159 = test: In vitro static biofilm inhibition assay (crystal violet), incl. dose response study; type: cell-based, Streptococcus mutans
S. mutans [1] = type: cell-based, Streptococcus mutans
[2] = tested on: human telomerase immortalized gingival keratinocytes; conditions: 24 h incubation, DermaLife K keratinocyte culture media, MTS assay
[3] = tested on: all strains of bacteria tested; parameters: key to the marks not given beside the values; conditions: 1 mM-metal
Experimental: Tooth application may involve exposure to bacteria outside the oral cavity, including the skin and digestive system. CAN, CAS and AgNO3 (1 mM-metal) were tested for their effect on in vitro planktonic growth of bacteria under the conditions listed in FIG. 9.

S. sobrinus = conditions: 500 μM, 6 h on 6 h-grown biofilm
Experimental: (§1) Potential mechanisms of biofilm inhibition by CeO2-NP were first explored by testing the effect of CAS and CAN on planktonic growth (FIG. 8). […] To further explore potential extracellular mechanisms of biofilm inhibition, dispersal assays were carried out on existing S. mutans and S. sobrinus biofilms grown statically for 6 h as described above (96-well plate, BHI, 1% sucrose). After 6 h, the planktonic cells were removed, the adherent biofilm rinsed (0.9% NaCl) and replaced with fresh 200 μL BHI (positive control) or BHI/500 μM CAS (test wells). All wells were allowed to incubate an additional 6 h after which the adherent biofilm was washed, stained and quantified via UV-Vis analysis (37). Biofilm dispersal was calculated similar to inhibition in Equation I via UV-Vis.

S. mutans [4] = conditions: 500 μM, 6 h on 6 h-grown biofilm
Experimental: as §1

O=[N+]([O-])[O-].O=[N+]([O-])[O-].O=[N+]([O-])[O-].[Ce+3] [Ce(NO3)3, Cerium (III) nitrate, reference compound]
effect on biofilm growth of S. sobrinus (in words) (S. sobrinus 6715): incapable of limiting biofilm growth | effect on S. mutans biofilm formation (in words) (S. mutans UA159): slight increase in biofilm growth; also recorded: inactive

N.N.O=[N+]([O-])O.O=[N+]([O-])O.O=[N+]([O-])[O-].O=[N+]([O-])[O-].O=[N+]([O-])[O-].O=[N+]([O-])[O-].[Ce+4] [CAN, ceric ammonium nitrate]
IC50 (S. mutans UA159; read-out: 50% inhibitory concentration (IC50) of biofilm formation): 137 µM

N.N.O=S(=O)(O)O [(NH4)2SO4, ammonium sulfate, reference compound]
activity in limiting planktonic growth (S. mutans [1]): not active

O=[N+]([O-])[O-].[Ag+] [AgNO3, Silver Nitrate, reference compound]
effect on biofilm growth of S. sobrinus (in words) (S. sobrinus 6715): incapable of limiting biofilm growth | effect on S. mutans biofilm formation (in words) (S. mutans UA159): slight increase in biofilm growth

O=[N+]([O-])[O-].O=[N+]([O-])[O-].O=[N+]([O-])[O-].O=[N+]([O-])[O-].O=[N+]([O-])[O-].O=[N+]([O-])[O-].[Ce+4].[NH4+].[NH4+] [CAN, ceric ammonium nitrate]
toxicity on gingival keratinocytes as compared to AgNO3 [2]: reduced toxicity | inhibition of biofilm formation of S. sobrinus 6715 (S. sobrinus 6715): 44% | visible in vitro planktonic growth of bacteria [3]: ++ | effect on planktonic growth of S. mutans (S. mutans [1]): did not inhibit; also recorded: slight growth lag; also recorded: slight lagging effect; also recorded: Non-inhibitory effect | inhibition of S. mutans biofilm growth (S. mutans UA159; 125 µM): 51% and ~40%

O=S(=O)([O-])[O-].[Zn+2] [ZnSO4, reference compound]
effect on biofilm growth of S. sobrinus (in words) (S. sobrinus 6715): incapable of limiting biofilm growth | effect on S. mutans biofilm formation (in words) (S. mutans UA159; 125 μM (metal ion/Ce), BHI 1% sucrose, 37° C., 5% CO2, 20 h): slight increase in biofilm growth

ceric ammonium sulfate [CAS]
toxicity on gingival keratinocytes as compared to AgNO3 [2]: reduced toxicity | inhibition of biofilm formation of S. sobrinus 6715 (S. sobrinus 6715): 35% | visible in vitro planktonic growth of bacteria [3]: ++ | effect on planktonic growth of S. mutans (S. mutans [1]): did not inhibit; also recorded: non-significant growth effect; also recorded: Non-inhibitory effect | biofilm dispersal, S. sobrinus (S. sobrinus): 8% | biofilm dispersal, S. mutans (S. mutans [4]): 6% | inhibition of S. mutans biofilm growth (S. mutans UA159; 125 μM): 40%

From patent publication US10835556B2, “Hydrolyzed tetravalent metal salts and methods of biofilm inhibition” (THE BOARD OF TRUSTEES OF THE UNIVERSITY OF ILLINOIS, priority 2018, dated 2020)
